Test results: the supplement of paper PMC10307832

Key:
Assay in all cases: relative viability (nuclei count vs DMSO), 5 days (fraction); higher = more cells survive
NCI-H1703 = system: NCI-H1703
In short: (§1)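 Dosing by pin tool came one day after lung cancer cell lines were seeded in 1536-well plates, using either one drug or a fixed anchor-drug dose plus five library-drug doses (not always all listed) in √10 steps. After 5 days, nuclei were counted on 4× images. Relative viability is treated-well nuclei count divided by vehicle-well nuclei count, and values are medians of duplicate plates.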

Calu-6 = system: Calu-6
In short: as §1

IA-LM = system: IA-LM
In short: as §1

NCI-H1299 = system: NCI-H1299
In short: as §1

A549 = system: A549
In short: as §1

EBC-1 = system: EBC-1
In short: as §1

NCI-H1563 = system: NCI-H1563
In short: as §1

SMILES | relative viability (NCI-H1703; first compound 0.08 µM) | relative viability (NCI-H1703; first compound 0.253 µM) | relative viability (NCI-H1703; first compound 0.8 µM) | relative viability (NCI-H1703; first compound 2.53 µM) | relative viability (NCI-H1703; first compound 8 µM) | relative viability (Calu-6; first compound 0.08 µM) | relative viability (Calu-6; first compound 0.253 µM) | relative viability (Calu-6; first compound 0.8 µM) | relative viability (Calu-6; first compound 2.53 µM) | relative viability (Calu-6; first compound 8 µM) | relative viability (IA-LM; first compound 0.08 µM) | relative viability (IA-LM; first compound 0.253 µM) | relative viability (IA-LM; first compound 0.8 µM) | relative viability (IA-LM; first compound 2.53 µM) | relative viability (IA-LM; first compound 8 µM) | relative viability (NCI-H1299; first compound 0.08 µM) | relative viability (NCI-H1299; first compound 0.253 µM) | relative viability (NCI-H1299; first compound 0.8 µM) | relative viability (NCI-H1299; first compound 2.53 µM) | relative viability (NCI-H1299; first compound 8 µM) | relative viability (A549; first compound 0.08 µM) | relative viability (A549; first compound 0.253 µM) | relative viability (A549; first compound 0.8 µM) | relative viability (A549; first compound 2.53 µM) | relative viability (A549; first compound 8 µM) | relative viability (EBC-1; first compound 0.08 µM) | relative viability (EBC-1; first compound 0.253 µM) | relative viability (EBC-1; first compound 0.8 µM) | relative viability (EBC-1; first compound 2.53 µM) | relative viability (EBC-1; first compound 8 µM) | relative viability (NCI-H1563; first compound 0.08 µM) | relative viability (NCI-H1563; first compound 0.253 µM) | relative viability (NCI-H1563; first compound 0.8 µM) | relative viability (NCI-H1563; first compound 2.53 µM) | relative viability (NCI-H1563; first compound 8 µM)
O=c1[nH]c2ccccc2n1C1CCN(CCCC(c2ccc(F)cc2)c2ccc(F)cc2)CC1 [Pimozide] + C[C@@H](Oc1cc(-c2cnn(C3CCNCC3)c2)cnc1N)c1c(Cl)ccc(F)c1Cl [Crizotinib] (partner 1 µM) | 0.489 | 0.852 | 0.666 | 0.403 | 0.545 | 0.781 | 0.814 | 0.793 | 0.679 | 0.624 | 0.975 | 0.88 | 0.988 | 0.879 | 0.859 | 0.955 | 0.838 | 0.934 | 0.811 | 0.885 | 0.756 | 0.668 | 0.643 | 0.658 | 0.644 | 0.19 | 0.232 | 0.199 | 0.175 | 0.152 | 0.824 | 0.844 | 0.803 | 0.775 | 0.645
O=c1[nH]c2ccccc2n1C1CCN(CCCC(c2ccc(F)cc2)c2ccc(F)cc2)CC1 [Pimozide] + C[C@]1(O)C[C@@H](c2nc(-c3ccc4ccc(-c5ccccc5)nc4c3)c3c(N)nccn32)C1 [Linsitinib] (partner 1 µM) | 0.637 | 0.544 | 0.637 | 0.514 | 0.553 | 0.986 | 0.94 | 0.843 | 0.881 | 0.913 | 0.652 | 0.566 | 0.356 | 0.456 | 0.759 | 0.949 | 0.945 | 0.923 | 0.899 | 0.949 | 0.426 | 0.497 | 0.627 | 0.548 | 0.619 | 0.867 | 0.844 | 0.766 | 0.821 | 0.892 | 1.12 | 1.19 | 1.35 | 1.16 | 0.861
O=c1[nH]c2ccccc2n1C1CCN(CCCC(c2ccc(F)cc2)c2ccc(F)cc2)CC1 [Pimozide] + Cc1nc(NC(=O)N2CCC[C@H]2C(N)=O)sc1-c1ccnc(C(C)(C)C(F)(F)F)c1 [Alpelisib] (partner 2 µM) | 0.323 | 0.325 | 0.385 | 0.258 | 0.274 | 0.938 | 0.999 | 0.92 | 0.844 | 0.883 | 0.695 | 0.846 | 0.666 | 0.894 | 0.853 | 1.04 | 0.981 | 1.04 | 1.07 | 1.12 | 0.727 | 0.762 | 0.678 | 0.707 | 0.617 | 0.895 | 0.724 | 0.823 | 0.796 | 0.728 | 0.919 | 0.814 | 0.819 | 0.798 | 0.739
